In patent publication US6335157B1, “Method based on localization of Hsp90 to the centrosome” (The European Molecular Biology Laboratory, priority 1999, dated 2002):

Test system: Hela and human epithelial kidney 293 cells
Experiment: Geldanamycin treatment of cells, immunofluorescence staining with anti-α-tubulin, anti-γ-tubulin and anti-Hsp90 antibodies
Assay type: cell-based
Settings: 1 μg/ml geldanamycin
Experimental: Geldanamycin specifically interferes with the function of Hsp90 by binding to the ATP binding site of Hsp90 (Prodromou et al., 1997, Cell 90:65-75; Stebbins et al., 1997, Cell 89:239-250). Hela and human epithelial kidney 293 cells were treated with 1 μg/ml geldanamycin for times ranging from […] (15 minutes, 30 minutes, 1 hour, 5 hours, 15 hours, 20 hours and 30 hours) and were stained with anti-α-tubulin, anti-γ-tubulin and anti-Hsp90 antibodies. […] However, aberrant mitotic spindles were detected from as early as 1 hour of treatment with geldanamycin. More than 50% of the mitotic figures produced in the presence of the drug after 20 hours of treatment contained aberrant mitotic figures in which the centrosomes, the spindles, and the distribution of chromatin were severely disrupted. […] The spindles of these cells were rather asymmetric, with unequal amounts of microtubules in each hemi-spindle and spindle poles very often detached from the centrosome. The aster microtubules which are organized around the centrosome were also abnormal in number and distribution. […] About 50% of the cells contained misaligned chromosomes. Thus, while the centrosome and the cytoskeleton of interphase cells were insensitive to geldanamycin, mitotic centrosomes cannot be properly formed in the presence of geldanamycin. […] Therefore, notwithstanding the possible contribution of other non-centrosomal functions of Hsp90 to some of these phenotypes, it is clear that the inhibition of the function of Hsp90 results in abnormalities in centrosome structure.

COC1=C2C[C@@H](C)C[C@H](OC)[C@H](O)[C@@H](C)/C=C(\C)[C@H](OC(N)=O)[C@@H](OC)/C=C\C=C(/C)C(=O)NC(=CC1=O)C2=O [geldanamycin]
cells containing misaligned chromosomes: About 50% | earliest treatment time at which aberrant mitotic spindles were detected: 1 h | mitotic figures that were aberrant (centrosomes, spindles and distribution of chromatin severely disrupted) (after 20 hours of treatment): More than 50%
